From patent publication US11472811B2, “Pyrazolotriazolopyrimidine derivatives as A2A receptor antagonist” (BEIGENE, LTD., priority 2018, dated 2022) come the findings set out here.

Molecules are shown by their SMILES. Where two headings read alike, the source gives them in different places.

One data set is described as follows: Mouse BBB assay. The format is in vivo. The conditions noted are these: oral 10 mg/kg. How it is done: Mice were acclimated for 1 week prior to use at 18-30 g body weight. Fasted mice were dosed orally at 10 mg/kg dose. At 1, 2 and 4 hours postdose, plasma samples from cardiac blood collected in tubes containing K2EDTA as the anticoagulant, and excised cerebral hemispheres were immediately frozen and stored at −80° C. until bioanalysis. Total concentrations of the compound were determined by LC-MS/MS. Brain homogenate concentrations were converted to brain concentrations for the calculations of brain-to-plasma ratios.

Data set [1] has as its target human A2A receptor (A2AR) (Homo sapiens (Human), UniProt P29274). The data set can be described thus: Luciferase reporter assay (HEK293-A2AR-luc2p/CRE/Hygro cells). The class given is cell-based. The conditions noted are these: 3 nM CGS21680, 5 h incubation. Put shortly: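 HEK293 cells stably expressing human A2AR and a CRE-luc2P reporter were seeded in 1% FBS with 1 U/mL adenosine deaminase. After 18 h they were stimulated 5 h with 3 nM CGS21680 plus compound (0.1–10000 nM), then luciferase luminescence was read. IC50 was taken from inhibition curves, with CGS21680 alone set as 100%.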
On the technique in general: In a reporter assay the amount or activity of a reporter protein is the signal.

Sequence of human A2A receptor (A2AR) (P29274 whole entry): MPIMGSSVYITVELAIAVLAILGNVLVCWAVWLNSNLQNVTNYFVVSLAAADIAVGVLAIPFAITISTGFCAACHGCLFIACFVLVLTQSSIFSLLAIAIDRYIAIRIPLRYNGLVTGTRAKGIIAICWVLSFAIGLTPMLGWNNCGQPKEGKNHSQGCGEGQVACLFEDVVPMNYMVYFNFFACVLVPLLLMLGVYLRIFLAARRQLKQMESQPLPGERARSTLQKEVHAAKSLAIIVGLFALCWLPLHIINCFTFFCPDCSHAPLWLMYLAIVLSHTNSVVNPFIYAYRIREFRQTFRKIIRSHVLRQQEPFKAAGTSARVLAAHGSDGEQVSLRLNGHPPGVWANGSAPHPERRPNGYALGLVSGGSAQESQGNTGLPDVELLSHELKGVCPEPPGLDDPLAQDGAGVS

In the case of `COCCOc1ccc(N2CCN(CCn3ncc4c3nc(N)n3nc(-c5ccco5)nc43)CC2)cc1` [Preladenant, reference compound], the concentration at 1 h was 258 ng/g in “Mouse BBB assay” (BLOQ: below limit of quantitation, Brain is 5 ng/g, read-out: Brain) and 197 ng/mL in the data set “Mouse BBB assay” (limit of quantitation plasma 1 ng/ml, read-out: Plasma). The IC50 is the point on the concentration scale where inhibition reaches its midpoint. In data set [1], `C[C@](C(=O)NCc1cc(F)ccn1)(c1ccccc1)n1ncc2c1nc(N)n1nc(-c3ccco3)nc21` [Example 118B, (R)-2-(5-amino-2-(furan-2-yl)-7H-pyrazolo[4,3-e][1,2,4]triazolo[1,5-c]pyrimidin-7-yl)-N-((4-fluoropyridin-2-yl)methyl)-2-phenylpropanamide] came in with an IC50 of 6 nM.

Consider `Nc1nc2c(cnn2C(C(=O)NC2CCCc3ccccc32)c2ccccc2)c2nc(-c3ccco3)nn12` (stereo not shown) [Example 13, 2-(5-amino-2-(furan-2-yl)-7H-pyrazolo[4,3-e][1,2,4]triazolo[1,5-c]pyrimidin-7-yl)-2-phenyl-N-(1,2,3,4-tetrahydronaphthalen-1-yl)acetamide], for which the IC50 in data set [1] is 8.3 nM.

Regarding `COc1ccccc1CNC(=O)C(CC(C)C)n1ncc2c1nc(N)n1nc(-c3ccco3)nc21` (stereo not shown) [Example 27, 2-(5-amino-2-(furan-2-yl)-7H-pyrazolo[4,3-e][1,2,4]triazolo[1,5-c]pyrimidin-7-yl)-N-(2-methoxybenzyl)-4-methylpentanamide], in data set [1], half-maximal inhibition (IC50) was put at 16.1 nM. On the same count and under the same terms, then `CC(C(=O)NCCN1CCOCC1)(c1ccccc1)n1ncc2c1nc(N)n1nc(-c3ccco3)nc21` (stereo not shown) [Example 41, 2-(5-amino-2-(furan-2-yl)-7H-pyrazolo[4,3-e][1,2,4]triazolo[1,5-c]pyrimidin-7-yl)-N-(2-morpholinoethyl)-2-phenylpropanamide], with 9.3 nM; and `CC(C(=O)N[C@@H]1CCC[C@@H]1O)(c1ccccc1)n1ncc2c1nc(N)n1nc(-c3ccco3)nc21` (stereo partly drawn) [Example 48, 2-(5-amino-2-(furan-2-yl)-7H-pyrazolo[4,3-e][1,2,4]triazolo[1,5-c]pyrimidin-7-yl)-N-((1R,2S)-2-hydroxycyclopentyl)-2-phenylpropanamide], with 2.9 nM. As to `CC(C(=O)N[C@H]1CCCNC1)(c1ccccc1)n1ncc2c1nc(N)n1nc(-c3ccco3)nc21` (stereo partly drawn) [Example 68, 2-(5-amino-2-(furan-2-yl)-7H-pyrazolo[4,3-e][1,2,4]triazolo[1,5-c]pyrimidin-7-yl)-2-phenyl-N—((S)-piperidin-3-yl)propanamide], in data set [1], the IC50 is 72.1 nM. `Cc1ccc(CNC(=O)C(C)(c2ccccc2)n2ncc3c2nc(N)n2nc(-c4ccco4)nc32)nc1` (stereo not shown) [Example 109, 2-(5-amino-2-(furan-2-yl)-7H-pyrazolo[4,3-e][1,2,4]triazolo[1,5-c]pyrimidin-7-yl)-N-((5-methylpyridin-2-yl)methyl)-2-phenylpropanamide] showed an IC50 in data set [1] of 1 nM.

In the case of `C[C@](C(=O)N[C@H]1C[C@H](O)C1)(c1ccccc1)n1ncc2c1nc(N)n1nc(-c3ccco3)nc21` [Example 102B, (R)-2-(5-amino-2-(furan-2-yl)-7H-pyrazolo[4,3-e][1,2,4]triazolo[1,5-c]pyrimidin-7-yl)-(trans)-N-(3-hydroxycyclobutyl)-2-phenylpropanamide], the IC50 in data set [1] came out at 10.7 nM.

Compound `Cc1cccnc1CNC(=O)[C@@](C)(c1ccccc1)n1ncc2c1nc(N)n1nc(-c3ccco3)nc21` [Example 111B, (R)-2-(5-amino-2-(furan-2-yl)-7H-pyrazolo[4,3-e][1,2,4]triazolo[1,5-c]pyrimidin-7-yl)-N-((3-methylpyridin-2-yl)methyl)-2-phenylpropanamide] had an IC50 in data set [1] of 0.5 nM. In data set [1], `CC(C(=O)N[C@H]1CC[C@H](O)CC1)(c1ccccc1)n1ncc2c1nc(N)n1nc(-c3ccco3)nc21` (relative stereo) [Example 52, 2-(5-amino-2-(furan-2-yl)-7H-pyrazolo[4,3-e][1,2,4]triazolo[1,5-c]pyrimidin-7-yl)-(trans)-N-(4-hydroxycyclohexyl)-2-phenylpropanamide] displayed an IC50 of 6.7 nM. On the same count and under the same terms, with `Cc1cccc(CCNC(=O)[C@@](C)(c2ccccc2)n2ncc3c2nc(N)n2nc(-c4ccco4)nc32)n1` [Example 150B, (R)-2-(5-amino-2-(furan-2-yl)-7H-pyrazolo[4,3-e][1,2,4]triazolo[1,5-c]pyrimidin-7-yl)-N-(2-(6-methylpyridin-2-yl)ethyl)-2-phenylpropanamide] the figure was 26.5 nM; with `C[C@](C(=O)N[C@H]1CC[S@@+]([O-])CC1)(c1ccccc1)n1ncc2c1nc(N)n1nc(-c3ccco3)nc21` (single isomer, unassigned) [Example 146B-1], 39.3 nM; with `C[C@@H](NC(=O)C(c1ccccc1)n1ncc2c1nc(N)n1nc(-c3ccco3)nc21)c1ccccc1` (stereo partly drawn) [Example 10, 2-(5-amino-2-(furan-2-yl)-7H-pyrazolo[4,3-e][1,2,4]triazolo[1,5-c]pyrimidin-7-yl)-2-phenyl-N—((R)-1-phenylethyl)acetamide], 16.5 nM. Still for that read-out and setting: then `C[C@](C(=O)NCc1ccccn1)(c1ccccc1)n1ncc2c1nc(N)n1nc(-c3ccco3)nc21` [Example 66B, (R)-2-(5-amino-2-(furan-2-yl)-7H-pyrazolo[4,3-e][1,2,4]triazolo[1,5-c]pyrimidin-7-yl)-2-phenyl-N-(pyridin-2-ylmethyl)propanamide], with 2.4 nM. The compound `CNCCNC(=O)C(C)(c1ccccc1)n1ncc2c1nc(N)n1nc(-c3ccco3)nc21` (stereo not shown) [Example 81, 2-(5-amino-2-(furan-2-yl)-7H-pyrazolo[4,3-e][1,2,4]triazolo[1,5-c]pyrimidin-7-yl)-N-(2-(methylamino)ethyl)-2-phenylpropanamide] returned an IC50 in data set [1] of 120 nM. `C[C@]1(O)CC[C@H](NC(=O)C(c2ccccc2)n2ncc3c2nc(N)n2nc(-c4ccco4)nc32)CC1` (stereo partly drawn) [Example 96, 2-(5-amino-2-(furan-2-yl)-7H-pyrazolo[4,3-e][1,2,4]triazolo[1,5-c]pyrimidin-7-yl)-(cis)-N-(4-hydroxy-4-methylcyclohexyl)-2-phenylacetamide]: in data set [1], the IC50 was determined as 7.5 nM. In data set [1], `CC(C(=O)N[C@H]1CC[C@@H](O)CC1)(c1ccccc1)n1ncc2c1nc(N)n1nc(-c3ccco3)nc21` (relative stereo) [Example 76, 2-(5-amino-2-(furan-2-yl)-7H-pyrazolo[4,3-e][1,2,4]triazolo[1,5-c]pyrimidin-7-yl)-(cis)-N-(4-hydroxycyclohexyl)-2-phenylpropanamide] displayed an IC50 of 5.2 nM. On the same count and under the same terms, with `C[C@](C(=O)N[C@H]1COC[C@H]1O)(c1ccccc1)n1ncc2c1nc(N)n1nc(-c3ccco3)nc21` [Example 107B, (R)-2-(5-amino-2-(furan-2-yl)-7H-pyrazolo[4,3-e][1,2,4]triazolo[1,5-c]pyrimidin-7-yl)-N-((3S,4S)-4-hydroxytetrahydrofuran-3-yl)-2-phenylpropanamide] the figure was 32.2 nM; with `C[C@](C(=O)NC1CCSCC1)(c1ccccc1)n1ncc2c1nc(N)n1nc(-c3ccco3)nc21` [Example 145B, (R)-2-(5-amino-2-(furan-2-yl)-7H-pyrazolo[4,3-e][1,2,4]triazolo[1,5-c]pyrimidin-7-yl)-2-phenyl-N-(tetrahydro-2H-thiopyran-4-yl)propanamide], 9 nM; with `COc1cccc(CNC(=O)C(C)(c2ccccc2)n2ncc3c2nc(N)n2nc(-c4ccco4)nc32)n1` (stereo not shown) [Example 112, 2-(5-amino-2-(furan-2-yl)-7H-pyrazolo[4,3-e][1,2,4]triazolo[1,5-c]pyrimidin-7-yl)-N-((6-methoxypyridin-2-yl)methyl)-2-phenylpropanamide], 4.1 nM.

`CC(C(=O)Nc1ccccn1)(c1ccccc1)n1ncc2c1nc(N)n1nc(-c3ccco3)nc21` (stereo not shown) [Example 77, 2-(5-amino-2-(furan-2-yl)-7H-pyrazolo[4,3-e][1,2,4]triazolo[1,5-c]pyrimidin-7-yl)-2-phenyl-N-(pyridin-2-yl)propanamide] returned an IC50 in data set [1] of 15.3 nM.

As for `CC(C(=O)N[C@@H]1CCCC[C@@H]1O)(c1ccccc1)n1ncc2c1nc(N)n1nc(-c3ccco3)nc21` (stereo partly drawn) [Example 58, 2-(5-amino-2-(furan-2-yl)-7H-pyrazolo[4,3-e][1,2,4]triazolo[1,5-c]pyrimidin-7-yl)-N-((1R,2S)-2-hydroxycyclohexyl)-2-phenylpropanamide], the 50% inhibitory concentration (IC50) in data set [1] was found to be 1.8 nM. Same read-out and setting: with `CC(C(=O)N[C@H]1CCCC[C@H]1O)(c1ccccc1)n1ncc2c1nc(N)n1nc(-c3ccco3)nc21` (stereo partly drawn) [Example 58A, 2-(5-amino-2-(furan-2-yl)-7H-pyrazolo[4,3-e][1,2,4]triazolo[1,5-c]pyrimidin-7-yl)-N-((1S,2R)-2-hydroxycyclohexyl)-2-phenylpropanamide] the figure was 14.2 nM; with `CC(C(=O)NCc1ccccc1)(c1ccccc1)n1ncc2c1nc(N)n1nc(-c3ccco3)nc21` (stereo not shown) [Example 35, 2-(5-amino-2-(furan-2-yl)-7H-pyrazolo[4,3-e][1,2,4]triazolo[1,5-c]pyrimidin-7-yl)-N-benzyl-2-phenylpropanamide], 10.7 nM. In turn, `CNC(=O)C(C)(c1ccccc1)n1ncc2c1nc(N)n1nc(-c3ccco3)nc21` (stereo not shown) [Example 32, 2-(5-amino-2-(furan-2-yl)-7H-pyrazolo[4,3-e][1,2,4]triazolo[1,5-c]pyrimidin-7-yl)-N-methyl-2-phenylpropanamide] gave an IC50 in data set [1] of 25 nM. Same read-out and setting: with `Cc1cccc(CNC(=O)C(C)(c2ccccc2)n2ncc3c2nc(N)n2nc(-c4ccco4)nc32)n1` (stereo not shown) [Example 108, 2-(5-amino-2-(furan-2-yl)-7H-pyrazolo[4,3-e][1,2,4]triazolo[1,5-c]pyrimidin-7-yl)-N-((6-methylpyridin-2-yl)methyl)-2-phenylpropanamide] the figure was 3 nM.
